MIC data for 4 compounds are collected here from patent US11225465B2, “Albicidin derivatives, their use and synthesis” (TECHNISCHE UNIVERSITÄT BERLIN, priority 2017, dated 2022).

Broadly, the MIC is the smallest concentration in the dilution series that meets the test's criterion for growth inhibition.

Values after ≈ are worked out from the molar mass of the structure shown. Bounds are passed on as bounds.

Holding throughout (experiment): Microdilution assay, MIC
Holding throughout (format): cell-based
(In general: In broth dilution the organism is exposed to a series of concentrations in liquid medium.)

One assay deals with Bacillus subtilis DSM10. Particulars: DSM10, 20 h, read-out: MIC B. subtilis DSM10. As for the experimental part:
(§1) The tests were performed using the micro dilution method.
(§2) The determination of MIC values was performed according to the ninth edition of the Approved Standard M07-A9 (CLSI. Methods for Dilution Antimicrobial Susceptibility Tests for Bacteria That Grow Aerobically; Approved Standard—Ninth Edition. CLSI document M07-A9. Wayne, Pa.: Clinical and Laboratory Standards Institute; 2012.)
(§3) The test was carried out for four different bacterial strains (E. coli DSM 1116 [gram negative], B. subtilis DSM 10 [gram positive], M. luteus DSM 1790 [gram positive], S. typhimurium TA100 [gram negative]). 20 μL of cryo stock of each strain were inoculated in 20 mL of LB media (Lysogeny broth: 10 g/L peptone, 5 g/L yeast extract, 5 g/L NaCl) followed by incubation over night at 37° C., 200 rpm. The test inoculum was adjusted by the 0.5 McFarland Standard (OD625 from 0.08 to 0.1). Within 15 min of preparation, the adjusted inoculum suspension was diluted in MHBII media (BBL T M Mueller-Hinton Broth II, Becton, Dickinson and Company, N.J./USA) so that each well contained approximately 5×10^5 CFU/mL in a final volume of 100 μL. 95 μL of the inoculum were applied per well and 5 μL of the (diluted) antibiotic substance were added.
(§4) Previously the dry antibiotic compounds were dissolved in DMSO (100%) with a concentration of 2560 μg/mL and the resulting stock solutions were further diluted in DMSO (100%). 5 μL of each antibiotic dilution were applied to the microdilution tray to reach final concentrations of 64 μg/mL to 0.008 μg/mL. One row of each well plate was left as a growth control without antibiotic substances and another row of the microdilution tray was used as sterility control (only MHB II-media). The antimicrobial effect of the solvent (DMSO) was tested by adding 5 μL DMSO to several wells without antibiotics.
(§5) Purity check and cell titer control were performed according to International Standard M07-A9 on Mueller-Hinton II Agar (Mueller Hinton II Broth, 15 g/L agar-agar).
(§6) Both microdilution trays and agar plates were incubated at 37° C. for 20 h and subsequently analyzed visually.

For the next assay, the system named is E. coli DSM 1116. Particulars: Escherichia coli, DSM1116, 20 h, read-out: MIC E. coli DSM1116. The procedure: as §1, §2, §3, §4, §5, §6
For assay [1], the system named is Micrococcus luteus DSM1790. Particulars: DSM1790, 20 h, read-out: MIC M. luteus DSM1790. As for the experimental part: as §1, §2, §3, §4, §5, §6
A further assay deals with S. typhimurium TA100. Particulars: Salmonella enterica, 20 h, read-out: MIC S. typhimurium TA100. As for the experimental part:
as §1, §2, §3, §4, §5, §6

Consider `COc1c(NC(=O)c2ccc(NC(=O)c3ccc(NC(=O)[C@H](Cc4c[nH]cn4)NC(=O)c4ccc(NC(=O)/C(C)=C/c5ccc(O)cc5)cc4)cc3)c(OC)c2O)ccc(C(=O)O)c1O` [Compound 1, L-His-albicidin], for which the minimal inhibitory concentration (MIC) with Bacillus subtilis DSM10 was 500 µg/mL (≈ 566 µM); in the assay on E. coli DSM 1116 it was 63 µg/mL (≈ 71.3 µM); in assay [1], 4000 µg/mL (≈ 4530 µM); in the assay with S. typhimurium TA100 it was 31 µg/mL (≈ 35.1 µM).

Regarding `COc1c(NC(=O)c2ccc(NC(=O)c3ccc(NC(=O)[C@@H](CN(C)C)NC(=O)c4ccc(NC(=O)/C(C)=C/c5ccc(O)cc5)cc4)cc3)c(OC)c2O)ccc(C(=O)O)c1O` [Compound 16, D-DMDAP-Albicidin], the MIC was 1000 µg/mL (≈ 1160 µM) with Bacillus subtilis DSM10, 500 µg/mL (≈ 581 µM) with E. coli DSM 1116, at least 8000 µg/mL in assay [1] and 250 µg/mL (≈ 290 µM) with S. typhimurium TA100.

`COc1c(NC(=O)c2ccc(NC(=O)c3ccc(NC(=O)[C@H](CN(C)C)NC(=O)c4ccc(NC(=O)/C(C)=C/c5ccc(O)cc5)cc4)cc3)c(OC)c2O)ccc(C(=O)O)c1O` [Compound 2, L-DMDAP-Albicidin]: the MIC was 125 µg/mL (≈ 145 µM) in the assay on Bacillus subtilis DSM10, 125 µg/mL (≈ 145 µM) in the assay with E. coli DSM 1116, 2000 µg/mL (≈ 2320 µM) in assay [1] and 31 µg/mL (≈ 36 µM) in the assay with S. typhimurium TA100.

With `COc1c(NC(=O)c2ccc(NC(=O)c3ccc(NC(=O)C(Cc4c[nH]nn4)NC(=O)c4ccc(NC(=O)/C(C)=C/c5ccc(O)cc5)cc4)cc3)c(OC)c2O)ccc(C(=O)O)c1O` [Compound 3, L-Azahis-Albicidin], the MIC in the assay with Bacillus subtilis DSM10 was 125 µg/mL (≈ 141 µM); with E. coli DSM 1116 it was at most 16 µg/mL; in assay [1], 500 µg/mL (≈ 565 µM); in the assay with S. typhimurium TA100, at most 16 µg/mL.
